Values joined by “and” are separate entries in the source; they are usually repeats but may differ in a detail not shown here. Equal entries are not always repeated.
Biological target: Beta-arrestin-1 (Oryctolagus cuniculus, UniProt Q95223)
Sequence (Q95223 whole entry): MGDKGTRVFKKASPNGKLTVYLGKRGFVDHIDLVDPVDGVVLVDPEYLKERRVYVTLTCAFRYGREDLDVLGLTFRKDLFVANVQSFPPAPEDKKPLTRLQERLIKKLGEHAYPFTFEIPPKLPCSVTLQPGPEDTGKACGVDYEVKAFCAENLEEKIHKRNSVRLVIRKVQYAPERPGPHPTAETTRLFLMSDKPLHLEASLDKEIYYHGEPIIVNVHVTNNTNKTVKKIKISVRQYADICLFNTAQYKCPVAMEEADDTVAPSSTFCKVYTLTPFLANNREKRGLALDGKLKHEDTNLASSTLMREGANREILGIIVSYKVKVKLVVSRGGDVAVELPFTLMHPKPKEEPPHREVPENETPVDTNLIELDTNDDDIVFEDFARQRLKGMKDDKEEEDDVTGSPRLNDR

SMILES | Ki
C[N+](C)(C)CCOC(N)=O [(2-Hydroxyethyl)trimethyl ammonium chloride carbamate] | 1660 nM and > 10000 nM
CC(=O)OCC[N+](C)(C)C [2-acetoxyethyl(trimethyl)ammonium;perchlorate] | 3230 nM
O=C1CCCN1CC#CCN1CCCC1 [1-[4-(2-oxo-pyrrolidin-1-yl)-but-2-ynyl]-pyrrolidinium] | 214 nM and 1560 nM
